The values that follow come from patent US9776981B2, “Hepatitis C virus inhibitors” (BRISTOL-MYERS SQUIBB COMPANY, priority 2009, dated 2017).

In the assay the test system is HCV 1b genotype (HCV-neo replicon cells). Description: HCV Replicon assay (HCV 1b genotype). Format: cell-based. Particulars: Hepatitis C virus, HCV 1b genotype replicon. How it is done: An HCV Replicon assay was utilized in the present disclosure, and was prepared, conducted and validated as described in commonly owned PCT/US2006/022197 and in O'Boyle et al., Antimicrob. Agents Chemother., 49(4):1346-1353 (April 2005). Assay methods incorporating luciferase reporters have also been used as described (Apath.com).
HCV-neo replicon cells and replicon cells containing resistance substitutions in the NS5A region were used to test the currently described family of compounds. The compounds were determined to have differing degrees of reduced inhibitory activity on cells containing mutations vs. the corresponding inhibitory potency against wild-type cells. Thus, the compounds of the present disclosure can be effective in inhibiting the function of the HCV NS5A protein and are understood to be as effective in combinations as previously described in application PCT/US2006/022197 and commonly owned WO 04/014852. It should be understood that the compounds of the present disclosure can inhibit multiple genotypes of HCV. […] In one embodiment, compounds of the present disclosure are inhibitory versus 1a, 1b, 2a, 2b, 3a, 4a, and 5a genotypes.

The mark [1] stands for this setting: class symbol, read-out: Range (EC50 against HCV 1b).

Read-outs that look alike come from different tables or passages of the source.

For the compound `COC(=O)N[C@H](C(=O)N1CCC[C@H]1c1nc2ccc(-c3ccc4cc(-c5ccc6nc([C@@H]7CCCN7C(=O)[C@@H](NC(=O)OC)C7CC7)[nH]c6c5)ccc4c3)cc2[nH]1)C1CC1` [Example 11, Dimethyl (2,6-naphthalenediylbis(1H-benzimidazole-5,2-diyl(2S)-2,1-pyrrolidinediyl((1S)-1-cyclopropyl-2-oxo-2,1-ethanediyl)))biscarbamate], the EC50 (as a rule, the concentration that produces a half-maximal response) under setting [1] was 0.0101 to 1 nM and the EC50 (read-out: EC50) turned out to be 0.0182 nM.

For `COC(=O)N[C@H](C(=O)N1[C@@H]2C[C@@H]2C[C@H]1c1ncc(-c2ccc3nc(-c4ccc5nc([C@@H]6C[C@H]7C[C@H]7N6C(=O)[C@@H](NC(=O)OC)C(C)C)[nH]c5c4)cnc3c2)[nH]1)C(C)C` [Example 52, Methyl ((1S)-1-(((1R,3S,5R)-3-(4-(2-(2-((1R,3S,5R)-2-((2S)-2-((methoxycarbonyl)amino)-3-methylbutanoyl)-2-azabicyclo[3.1.0]hex-3-yl)-1H-benzimidazol-5-yl)-6-quinoxalinyl)-1H-imidazol-2-yl)-2-azabicyclo[3.1.0]hex-2-yl)carbonyl)-2-methylpropyl)carbamate], the EC50 (read-out: EC50) turned out to be 0.0059 nM.

As for `COC(=O)N[C@H](C(=O)N1[C@@H]2C[C@@H]2C[C@H]1c1ncc(-c2ccc3nc(-c4ccc5nc([C@@H]6C[C@H]7C[C@H]7N6C(=O)[C@@H](NC(=O)OC)C6CCOCC6)[nH]c5c4)cnc3c2)[nH]1)C1CCOCC1` [Example 53, Methyl ((1S)-2-((1R,3S,5R)-3-(4-(2-(2-((1R,3S,5R)-2-((2S)-2-((methoxycarbonyl)amino)-2-(tetrahydro-2H-pyran-4-yl)acetyl)-2-azabicyclo[3.1.0]hex-3-yl)-1H-benzimidazol-5-yl)-6-quinoxalinyl)-1H-imidazol-2-yl)-2-azabicyclo[3.1.0]hex-2-yl)-2-oxo-1-(tetrahydro-2H-pyran-4-yl)ethyl)carbamate], the EC50 is, setting by setting: under setting [1], 1.01 to 1000 nM; (read-out: EC50) 1.81 nM.

In the case of `COC(=O)N[C@H](C(=O)N1[C@@H]2C[C@@H]2C[C@H]1c1ncc(-c2cnc3cc(-c4ccc5nc([C@@H]6C[C@H]7C[C@H]7N6C(=O)[C@@H](NC(=O)OC)C6CCOCC6)[nH]c5c4)ccc3n2)[nH]1)C1CCOCC1` [Example 58, Methyl ((1S)-2-((1R,3S,5R)-3-(4-(6-(2-((1R,3S,5R)-2-((2S)-2-((methoxycarbonyl)amino)-2-(tetrahydro-2H-pyran-4-yl)acetyl)-2-azabicyclo[3.1.0]hex-3-yl)-1H-benzimidazol-5-yl)-2-quinoxalinyl)-1H-imidazol-2-yl)-2-azabicyclo[3.1.0]hex-2-yl)-2-oxo-1-(tetrahydro-2H-pyran-4-yl)ethyl)carbamate], the EC50 is, setting by setting: under setting [1], 0.0101 to 1 nM; (read-out: EC50) 0.849 nM.

For `COC(=O)N[C@H](C(=O)N1C[C@@H](C)C[C@H]1c1ncc(-c2ccc(-c3ccc4cc(-c5[nH]c([C@@H]6C[C@H](C)CN6C(=O)[C@@H](NC(=O)OC)C(C)C)nc5Cl)ccc4c3)cc2)[nH]1)C(C)C` [Example 143, Methyl ((1S)-1-(((2S,4S)-2-(4-(4-(6-(4-chloro-2-((2S,4S)-1-((2S)-2-((methoxycarbonyl)amino)-3-methylbutanoyl)-4-methyl-2-pyrrolidinyl)-1H-imidazol-5-yl)-2-naphthyl)phenyl)-1H-imidazol-2-yl)-4-methyl-1-pyrrolidinyl)carbonyl)-2-methylpropyl)carbamate], where the note is “read-out: EC50”, the EC50 is 0.00105 nM.

For `COC(=O)N[C@H](C(=O)N1C[C@@H](C)C[C@H]1c1ncc(-c2ccc(-c3ccc4cc(-c5[nH]c([C@@H]6C[C@H](C)CN6C(=O)[C@@H](NC(=O)OC)C6CCOCC6)nc5Cl)ccc4c3)cc2)[nH]1)C1CCOCC1` [Example 144, Methyl ((1S)-2-((2S,4S)-2-(4-(4-(6-(4-chloro-2-((2S,4S)-1-((2S)-2-((methoxycarbonyl)amino)-2-(tetrahydro-2H-pyran-4-yl)acetyl)-4-methyl-2-pyrrolidinyl)-1H-imidazol-5-yl)-2-naphthyl)phenyl)-1H-imidazol-2-yl)-4-methyl-1-pyrrolidinyl)-2-oxo-1-(tetrahydro-2H-pyran-4-yl)ethyl)carbamate], the EC50 reads like this: under setting [1], 0.0101 to 1 nM; (read-out: EC50) 0.0177 nM.

`COC(=O)N[C@@H](C(=O)N[C@H](c1nc(-c2ccc3cc(-c4ccc(-c5cnc([C@@H](NC(=O)[C@H](NC(=O)OC)C(C)C)C(C)(C)C)[nH]5)cc4)ccc3c2)c[nH]1)C(C)(C)C)C(C)C` [Example 148, Methyl ((1R)-1-(((1S)-1-(4-(4-(6-(2-((1S)-1-(((2R)-2-((methoxycarbonyl)amino)-3-methylbutanoyl)amino)-2,2-dimethylpropyl)-1H-imidazol-4-yl)-2-naphthyl)phenyl)-1H-imidazol-2-yl)-2,2-dimethylpropyl)carbamoyl)-2-methylpropyl)carbamate]: the EC50 under setting [1] is 1.01 to 1000 nM and the EC50 (read-out: EC50) is 8.43 nM.

With `COC(=O)N[C@H](C(=O)N[C@H](c1nc(-c2ccc(-c3ccc4cc(-c5c[nH]c([C@@H](NC(=O)[C@@H](NC(=O)OC)C(C)C)C(C)(C)C)n5)ccc4c3)cc2)c[nH]1)C(C)(C)C)C(C)C` [Example 149, methyl ((1S)-1-(((1S)-1-(4-(4-(6-(2-((1S)-1-(((2S)-2-((methoxycarbonyl)amino)-3-methylbutanoyl)amino)-2,2-dimethylpropyl)-1H-imidazol-4-yl)-2-naphthyl)phenyl)-1H-imidazol-2-yl)-2,2-dimethylpropyl)carbamoyl)-2-methylpropyl)carbamate], under setting [1], the EC50 is 0.0101 to 1 nM.

For `CC(C)CC(=O)N[C@H](c1nc(-c2ccc(-c3ccc4cc(-c5c[nH]c([C@@H](NC(=O)CC(C)C)C(C)(C)C)n5)ccc4c3)cc2)c[nH]1)C(C)(C)C` [Example 150, N-((1S)-1-(4-(4-(6-(2-((1S)-2,2-dimethyl-1-((3-methylbutanoyl)amino)propyl)-1H-imidazol-4-yl)-2-naphthyl)phenyl)-1H-imidazol-2-yl)-2,2-dimethylpropyl)-3-methylbutanamide], the EC50 under setting [1] fell in the range of 1.01 to 1000 nM.
